Results from US7601683B2, “Protein conformational isomers, methods of making, methods for using, compositions comprising and products made therewith” (Board of Regents of the University of Texas System, priority 2001, dated 2009).
Where two headings read alike, the source gives them in different places.

Target: tick anticoagulant peptide (TAP) (Ornithodoros moubata, UniProt P17726)
Sequence (P17726 whole entry): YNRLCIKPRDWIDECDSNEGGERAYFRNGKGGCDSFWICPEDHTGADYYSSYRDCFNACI

Compound: [Cl-].[Na+] [NaCl]
- reduction of the extent of denaturation of TAP by 8M urea (in the presence of 0.5 M NaCl): 23%
- reduction of the extent of denaturation of TAP by 8M urea (in the presence of 1M NaCl): 50%
- reversal of the structure of denatured TAP (in the presence of urea, after addition of the protein stabilizer (FIG. 7 column 3)): converts back to the native structure
